# The supplement of paper PMC10307832
# What was measured:
# Test in all cases: relative viability (nuclei count vs DMSO), 5 days (fraction); higher = more cells survive
# [1] = compound: C1=CC=C(C(=C1)C2=CC=C(C=C2)C3=CSC4=C3C(=C(C(=O)N4)C#N)O)O + Nc1ncn([C@H]2C[C@H](O)[C@@H](CO)O2)c(=O)n1 [Decitabine] (partner 2 µM)
# Summary of the method: (§1)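 One day after seeding in 1536-well plates, lung cancer cell lines were dosed by pin tool. Dosing was either single-drug or a fixed anchor-drug dose plus five library-drug doses (not always all listed) in √10 steps. After 5 days, nuclei were stained in one fix-and-stain step and counted on 4× images, and relative viability is the nuclei count of treated wells over that of vehicle wells, given as the median of duplicate plates.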
# TGX 221 + Pictilisib = compound: CC1=CN2C(=O)C=C(N=C2C(=C1)C(C)NC3=CC=CC=C3)N4CCOCC4 [TGX 221] + CS(=O)(=O)N1CCN(Cc2cc3nc(-c4cccc5[nH]ncc45)nc(N4CCOCC4)c3s2)CC1 [Pictilisib] (partner 1 µM)
# Summary of the method: as §1
# [2] = compound: C1=CC=C(C(=C1)C2=CC=C(C=C2)C3=CSC4=C3C(=C(C(=O)N4)C#N)O)O + CS(=O)(=O)N1CCN(Cc2cc3nc(-c4cccc5[nH]ncc45)nc(N4CCOCC4)c3s2)CC1 [Pictilisib] (partner 1 µM)
# Summary of the method: as §1
# [3] = compound: O=C(CCCCCCNC(=O)c1cnc(N(c2ccccc2)c2ccccc2)nc1)NO [Ricolinostat] + CS(=O)(=O)N1CCN(Cc2cc3nc(-c4cccc5[nH]ncc45)nc(N4CCOCC4)c3s2)CC1 [Pictilisib] (partner 1 µM)
# Summary of the method: as §1
Cell Line,relative viability ([1]; first compound 0.08 µM),relative viability ([1]; first compound 0.253 µM),relative viability ([1]; first compound 0.8 µM),relative viability ([1]; first compound 2.53 µM),relative viability ([1]; first compound 8 µM),relative viability (TGX 221 + Pictilisib; first compound 0.08 µM),relative viability (TGX 221 + Pictilisib; first compound 0.253 µM),relative viability (TGX 221 + Pictilisib; first compound 0.8 µM),relative viability (TGX 221 + Pictilisib; first compound 2.53 µM),relative viability (TGX 221 + Pictilisib; first compound 8 µM),relative viability ([2]; first compound 0.08 µM),relative viability ([2]; first compound 0.253 µM),relative viability ([2]; first compound 0.8 µM),relative viability ([2]; first compound 2.53 µM),relative viability ([2]; first compound 8 µM),relative viability ([3]; first compound 0.08 µM),relative viability ([3]; first compound 0.253 µM),relative viability ([3]; first compound 2.53 µM),relative viability ([3]; first compound 0.8 µM)
NCI-H1975,0.384,0.4,0.41,0.403,0.426,0.282,0.289,0.271,0.229,0.285,0.272,0.308,0.231,0.271,0.264,0.283,0.309,0.231,
NCI-H1993,0.633,0.672,0.622,0.62,0.572,0.709,0.886,0.759,0.864,0.787,0.901,1.01,0.762,0.902,0.828,0.645,0.889,0.239,0.882
NCI-H2009,0.384,0.47,0.415,0.372,0.36,0.814,0.746,0.893,0.774,0.662,0.893,0.829,0.771,0.84,0.787,0.498,0.829,0.85,0.757
NCI-H2023,0.242,0.247,0.197,0.222,0.196,0.23,0.244,0.252,0.215,0.228,0.185,0.215,0.263,0.204,0.22,0.162,0.277,0.185,0.183
NCI-H2085,0.543,0.615,0.499,0.528,0.495,0.424,0.444,0.439,0.425,0.46,0.414,0.517,0.528,0.418,0.399,,0.447,0.416,0.431
NCI-H2087,0.279,0.31,0.284,0.259,0.254,0.989,0.966,0.883,0.811,0.87,0.783,0.892,0.956,0.848,0.772,0.806,0.828,0.87,0.867
NCI-H2126,0.646,0.617,0.578,0.622,0.513,0.452,0.498,0.488,0.458,0.518,0.455,0.498,0.478,0.515,0.503,0.393,0.497,0.383,0.459
NCI-H2170,0.551,0.467,0.467,0.454,0.446,0.312,0.288,0.325,0.376,0.357,0.337,0.304,0.273,0.3,0.358,0.27,0.315,0.287,0.355
